Patent publication US4584305A, “Aiding the regression of neoplastic disease with 2,3,5,6-tetrahydro-6-phenylimidazo[2,1-b]thiazole” (Janssen Pharmaceutica N.V., priority 1981, dated 1986)

Experiment: Toxicity (mouse LD50)
Format: in vivo

SMILES: c1ccc(C2CN3CCSC3=N2)cc1 (stereo not shown) [levamisole, 2,3,5,6-tetrahydro-6-phenyl-imidazo[2,1-b]thiazole]
- toxicity: devoid of toxicity
